Measured values reported in EP3730489A1, “HETEROARYL COMPOUNDS AS AGROCHEMICAL FUNGICIDES” (BASF SE, priority 2019, dated 2020).

What was measured:
Type in all cases: cell-based
Fusarium culmorum = assay: Activity against Fusarium culmorum (Fusacu), microtiter plate test; details: relative growth vs active compound-free control (100%), measured at 405 nm 7 days after the inoculation; for activity at 31 ppm: Fusarium culmorum, 168 h
Description: (§1) The active compounds were formulated separately as a stock solution having a concentration of 10000 ppm in dimethyl sulfoxide.
4. Activity against Fusarium culmorum (Fusacu)
The stock solutions were mixed according to the ratio, pipetted onto a micro titer plate (MTP) and diluted with water to the stated concentrations. A spore suspension of Fusarium culmorum in an aqueous biomalt or yeast-bactopeptone-glycerine solution was then added. The plates were placed in a water vapor-saturated chamber at a temperature of 18°C. Using an absorption photometer, the MTPs were measured at 405 nm 7 days after the inoculation.
(§2) The measured parameters were compared to the growth of the active compound-free control variant (100%) and the fungus-free and active compound-free blank value to determine the relative growth in % of the pathogens in the respective active compounds.

Botrytis cinerea = assay: Activity against the grey mold Botrytis cinerea in the microtiterplate test (Botrci); details: relative growth vs active compound-free control (100%), measured at 405 nm 7 days after the inoculation
Description: as §1
1. Activity against the grey mold Botrytis cinerea in the microtiterplate test (Botrci)
The stock solutions were mixed according to the ratio, pipetted onto a micro titer plate (MTP) and diluted with water to the stated concentrations. A spore suspension of Botrci cinerea in an aqueous biomalt or yeast-bactopeptone-sodiumacetate solution was then added. The plates were placed in a water vapor-saturated chamber at a temperature of 18°C. Using an absorption photometer, the MTPs were measured at 405 nm 7 days after the inoculation.
as §2

Septoria tritici = assay: Activity against leaf blotch on wheat caused by Septoria tritici (Septtr), microtiter plate test; details: relative growth vs active compound-free control (100%), measured at 405 nm 7 days after the inoculation
Description: as §1
3. Activity against leaf blotch on wheat caused by Septoria tritici (Septtr)
The stock solutions were mixed according to the ratio, pipetted onto a micro titer plate (MTP) and diluted with water to the stated concentrations. A spore suspension of Septoria tritici in an aqueous biomalt or yeast-bactopeptone-glycerine solution was then added. The plates were placed in a water vapor-saturated chamber at a temperature of 18°C. Using an absorption photometer, the MTPs were measured at 405 nm 7 days after the inoculation.
as §2

Compound | activity at 31 ppm (Fusarium culmorum) | growth (%) at 31ppm Botrci (Botrytis cinerea) | growth (%) at 31ppm Septtr (Septoria tritici) | growth (%) at 31ppm Fusacu (Fusarium culmorum)
N#Cc1ccc2[nH]cc(-c3ocnc3C(F)(F)F)c2c1 [Example 2, 3-[4-(trifluoromethyl)oxazol-5-yl]-1H-indole-5-carbonitrile] | 7% | 6% | – | –
FC(F)Oc1ccc2[nH]cc(-c3sccc3C(F)(F)F)c2n1 [Example P5] | 0% | 1% | 4% | –
Fc1cnc2[nH]cc(-c3ocnc3I)c2c1 [Example 9, 5-(5-fluoro-1H-pyrrolo[2,3-b]pyridin-3-yl)-4-iodooxazole] | 11% | – | – | –
Brc1ccc2[nH]cc(-c3sccc3Br)c2c1 [Example P3] | 0% | 0% | 0% | –
Fc1ncc2[nH]cc(-c3sccc3C(F)(F)F)c2n1 [Example P17] | 14% | – | – | –
C#Cc1ccc2[nH]cc(-c3sccc3Cl)c2c1 [Example P2] | 1% | 1% | 12% | –
FC(F)(F)c1ncoc1-c1c[nH]c2ccc(Br)cc12 [Example P6] | – | 1% | 2% | –
C#Cc1cnc2[nH]cc(-c3ocnc3C(F)(F)F)c2c1 [Example 6, 5-(5-ethynyl-1H-pyrrolo[2,3-b]pyridin-3-yl)-4-(trifluoromethyl)oxazole] | 1% | 5% | 12% | –
Fc1cnc2[nH]cc(-c3ocnc3C(F)(F)F)c2c1 [Example 8, 5-(5-fluoro-1H-pyrrolo[2,3-b]pyridin-3-yl)-4-(trifluoromethyl)oxazole] | 6% | – | – | –
C#Cc1cnc2[nH]cc(-c3ocnc3Br)c2c1 [Example P8] | 0% | – | 15% | –
Clc1ccsc1-c1c[nH]c2ccc(Br)cc12 [Example P1] | 1% | 0% | 8% | –
3-[3-(trifluoromethyl)-2-thienyl]-1H-indole-5-carbonitrile [Example 1] | – | – | 14% | 0%
C#Cc1cnc2[nH]cc(-c3ocnc3C(F)F)c2c1 [Example P10] | 6% | – | – | –
N#Cc1ccc2[nH]cc(-c3sccc3Br)c2c1 [Example P4] | 17% | – | – | –
